From US20030166645A1, “Novel nitrofuran-containing heterocyclic compounds and uses thereof” (priority 2001, published 2003)
In brackets after ≈: the same amount, converted by molar mass. Like-named read-outs stand apart in the source and are kept apart here.

What was measured:
E coli = assay: Microdilution antimicrobial susceptibility test (MIC); format: cell-based; details: broth microdilution, 18-24 h, MIC = 90% inhibition of growth; read-out: MIC E coli MIC2
E coli (ImpA) = assay: as above; format: cell-based; details: broth microdilution, 18-24 h, MIC = 90% inhibition of growth; read-out: MIC E coli (ImpA) MIC9
Description: Microdilution Antimicrobial Susceptibility Test Assay
Stock solutions of tested compounds were prepared in N,N-dimethylformamide (DMF) at a concentration of 5 mg/mL. Working solutions of the tested compounds were then prepared from the stock solutions, in Mueller-Hinton broth (MHB) with a starting concentration of 64 μg/mL.
Bacterial inocula were prepared from overnight culture (i.e., one fresh colony from agar plate in 5 ml MHB; H. influenzae was grown in MHB with the addition of yeast extract, haematin, and NAD), centrifuged 2×5 min/3000 rpm (for S. pneumoniae and H. influenzae, 2×10 min/3000 rpm), and dispensed in 5 ml of fresh MHB each time, such that the bacterial suspension is diluted to obtain 100 colony forming units (cfu) in a microplate well (100 μl total volume).
Microplate wells were filled with two-fold dilutions of test compound (50 Al), starting with 64 μg/ml. Wells were then filled with 50 μl of bacterial inoculum (final volume: 100 μl/well). The plates were incubated at 37° C. for 18-24 hours (S. pneumoniae was grown in a CO2-enriched atmosphere).

S aureus = assay: as above; format: cell-based; details: broth microdilution, 18-24 h, MIC = 90% inhibition of growth; read-out: MIC S aureus MIC2
E faecalis = assay: as above; format: cell-based; details: broth microdilution, 18-24 h, MIC = 90% inhibition of growth; read-out: MIC E faecalis MIC2
S pneumoniae = assay: as above; format: cell-based; details: broth microdilution, 18-24 h, CO2-enriched atmosphere, MIC = 90% inhibition of growth; read-out: MIC S pneumoniae MIC6
M. catarrhalis = assay: as above; format: cell-based; details: Moraxella catarrhalis; broth microdilution, 18-24 h, MIC = 90% inhibition of growth; read-out: MIC M. catarrhalis MIC2
H influenzae = assay: as above; format: cell-based; details: broth microdilution, 18-24 h, MIC = 90% inhibition of growth; read-out: MIC H influenzae MIC4
S cerevisiae = assay: as above; format: cell-based; details: broth microdilution, 18-24 h, MIC = 90% inhibition of growth; read-out: MIC S cerevisiae MIC7
Clostridium perfringens = format: cell-based; details: disk 200 μg, anaerobic, 24-48 h
Clostridium sp. = format: cell-based; details: disk 200 μg, anaerobic, 24-48 h
Bacteroides fragilis [1] = format: cell-based; details: Bacteroides fragilis; disk 200 μg; anaerobic, 24-48 h
Peptostreptococcus sp = format: cell-based; details: Peptostreptococcus sp (fresh abdominal aspirate); disk 200 μg; anaerobic, 24-48 h
Bacteroides vulgatus = assay: Antimicrobial agar dilution test of anaerobic bacteria (MIC); format: cell-based; details: 48 h
Bacteroides fragilis [2] = assay: as above; format: cell-based; details: 48 h
[3] = tested on: Bacteroides thetaiotaomicron; format: cell-based; details: agar dilution, anaerobic, 48 h
E. coli = assay: Systemic bacterial infection model, mice infected with E. coli
S. aureus = assay: Systemic bacterial infection model, mice infected with S. aureus

`Cn1c(S)nnc1-c1ccc([N+](=O)[O-])o1` [Compound 122, 5-[2-(5-Nitro)furyl]-4-methyl-4H-1,2,4-triazole-3-thiol] showed an MIC (E coli) of 4 µg/mL (≈ 17.7 µM), an MIC (E coli (ImpA)) of 0.25 µg/mL (≈ 1.11 µM) and an MIC (S aureus) of 2 µg/mL (≈ 8.84 µM). For the same molecule, the MIC (E faecalis) was 2 µg/mL (≈ 8.84 µM), the MIC (S pneumoniae) was 4 µg/mL (≈ 17.7 µM) and the MIC (M. catarrhalis) was under 0.12 µg/mL. It also gave an MIC (H influenzae) of 8 µg/mL (≈ 35.4 µM), an MIC (S cerevisiae) of 32 µg/mL (≈ 141 µM) and an Inhibition zones (Clostridium perfringens; Clostridium perfringens (fresh wound isolate)) of 30 mm. The Inhibition zones (Clostridium perfringens; Clostridium perfringens, diameter includes disk) was 36 mm*, the Inhibition zones (Clostridium sp.; Clostridium sp. (first listed strain)) was 20 mm and the Inhibition zones (Clostridium sp.; Clostridium sp. (second listed strain)) was 40 mm. It also gave an Inhibition zones (Bacteroides fragilis [1]) of 41 mm, an Inhibition zones (Peptostreptococcus sp) of 15 mm and an MIC Bacteroides vulgatus (Bacteroides vulgatus) of under 0.125 µg/mL. It also gave an MIC Bacteroides fragilis (Bacteroides fragilis [2]; first B. fragilis column) of under 0.125 µg/mL, an MIC Bacteroides fragilis (Bacteroides fragilis [2]; second B. fragilis column) of under 0.125 µg/mL and an MIC Bacteroides fragilis (Bacteroides fragilis [2]; third B. fragilis column) of under 0.125 µg/mL. For the same molecule, the MIC Bacteroides thetaiotaomicron [3] was under 0.125 µg/mL, the “Survival (%)” value (E. coli; Study #3, 25 mg/kg IP QD × 3, 6 days observation) was 0% and the “Survival (%)” value (E. coli; Study #3, 50 mg/kg IP QD × 3, 6 days observation) was 60%. For the same molecule, the “Survival (%)” value (E. coli; Study #3, 75 mg/kg IP QD × 3, 6 days observation) was 20%, the “Survival (%)” value (E. coli; Study #3, 100 mg/kg IP QD × 3, 6 days observation) was 0% and the “Survival (%)” value (S. aureus; Study #2, 25 mg/kg IP QD × 3, 6 days observation) was 0%. For the same molecule, the “Survival (%)” value (S. aureus; Study #2, 50 mg/kg IP QD × 3, 6 days observation) was 30%, the “Survival (%)” value (S. aureus; Study #2, 75 mg/kg IP QD × 3, 6 days observation) was 10% and the “Survival (%)” value (S. aureus; Study #2, 100 mg/kg IP QD × 3, 6 days observation) was 0%.
